Measured values published in PMC12682123, “Positron emission tomography to assess drug occupancy at peripheral and central incretin receptors” (eBioMedicine, 2025).
Read-outs that look alike come from different tables or passages of the source. No end group written: not given here.

Columns and labels:
mice = details: central administration; cited from earlier work
From the text: One of the advancements of GLP-1R/GIPR co-activation is potentially the reduced nausea, food aversion, and emesis associated with GLP-1R-based treatment, in addition to an even more increased reduction in appetite and calorie intake.[26]^,[39] These effects may be associated with central activation of GLP-1 receptors by these drugs, and it has been proposed that the concurrent activation of central GIPR by tirzepatide exerts an anti-emetic effect, thereby improving tolerability to GLP-1 receptor–mediated side effects.

GIPR [1] = experiment: In vivo GIPR drug occupancy in pigs using [^68Ga]S02-GIP-T4 PET; design: species or system pig; details: infusion 0.5/50 μg/ml from 30 min before and throughout second scan, n = 1
Method: The study design for GIPR occupancy assessment in pigs was identical to that of GLP-1R, except for the following differences:
The pigs (n = 5) were positioned in the PET/CT scanner in a supine position with either the brain (n = 2) or the pancreas (n = 3) in the FOV when using [^68Ga]S02-GIP-T4. A target dose of 0.5–1 MBq/kg of [^68Ga]S02-GIP-T4, corresponding to a standardised peptide mass dose of 0.1 μg/kg, was administered for both baseline and follow-up scans (Tables 5 and 6). The peptide mass dose was chosen to avoid self-block of the GIPR, and based on previous dose-escalation studies in non-human primates.[16]
SAR441255 was administered subcutaneously at a dose of 100 μg/kg in four pigs, as described above (Table 5). […]
The reconstructed dynamic and whole-body static PET images were analysed using PMOD Base Functionality (PBAS) tool (PMOD Technologies LLC, Zurich, Switzerland) through manual segmentation on trans-axial PET and CT projections. […] The tracer distribution in brain regions was measured by automated segmentation of brain regions. […]
(§2) The convention to the SUV was corrected to the time and administered amount of radioactivity (in MBq) and the weight (in kilograms) of the pig.
The target engagement or drug occupancy for each experiment was calculated by subtracting the SUV in a tissue at the follow-up scan from the SUV in the same tissue at the baseline scan. […]

human GLP-1R = details: 10 nM tracer; for reduction of [^68Ga]Ga-DO3A-Exendin-4 binding: 60 min, RT, p < 0.0001
Method: The receptor specificity assay was repeated four times.
The following procedures were then performed for both assays: After incubation, the sections were washed with cold PBS (3× 1 min), dipped in MilliQ water, and air-dried at 37 °C for 10 min. Finally, the sections were exposed to digital phosphorimager plates (BAS-MS, Fujifilm) overnight (>10 radioactive half-lives) followed by digitalisation using a phosphorimage scanner (Amersham Typhoon FLA 9500 Phosphor Imager, GE) with a 50-μm pixel size for image visualisation. A 10 μl reference droplet, containing a known amount of radioactivity, was incorporated to facilitate the quantification of the autoradiogram.
The pixel values, measured in counts/mm^2, were transformed into Bq/mm^2 using the internal reference.

GLP-1R [2] = test system: GLP-1R
From the text: Pigs (n = 9) were positioned in the PET/CT scanner (Discovery MI, GE Healthcare) in a supine position with the brain at the centre of the Field of View (FOV). […] The peptide mass dose was chosen to avoid self-block of the GLP-1R by unlabelled DO3A-Exendin-4 peptide in the formulation and was based on previous dose-escalation studies in non-human primates.[23] A dynamic 60-min PET scan was started at tracer injection, serving as the baseline scan to visualise and quantify GLP-1R expression under normal physiological conditions prior to drug intervention. Following the dynamic scan, a whole-body CT was acquired, immediately followed by a whole-body static PET scan covering the regions from the brain to the bladder.
One experiment used unlabelled DO3A-VS-Exendin-4 (6 μg/kg) as a positive control (Table 4).
The follow-up scan was designed to assess the decreased binding of the tracer to its receptor, which, when compared to the baseline scan, would indicate reduced receptor availability, such as that caused by drug occupancy at the target GLP-1 receptor.
The reconstructed dynamic and whole-body static PET images were analysed using PMOD Base Functionality (PBAS) tool (PMOD Technologies LLC, Zurich, Switzerland) through manual segmentation on trans-axial PET and CT projections. Segmented tissues included the descending aorta, pancreas, liver, spleen, kidneys, and muscle. The tracer distribution in brain regions was measured by automated segmentation of brain regions. This was achieved by fusing the acquired PET dynamic images with the PMOD MRI pig brain atlas. […] CVOs, such as pituitary gland, were not included in the brain atlas and were thus segmented manually.
as §2
The target engagement or drug occupancy for each experiment was calculated by subtracting the SUV in a tissue at the follow-up scan from the SUV in the same tissue at the baseline scan. The difference was divided by the SUV in tissue at baseline and multiplied by 100 to reach the percentage of drug occupancy (Equation 1):Equation 1 Occupancy(%)=SUVbaseline−SUVfollow−up/SUVbaseline×100
All PET measurements were expressed as average SUVmean.

[3] = cited from earlier work
From the text: (§1) This can likely be explained by the lower GLP-1R affinity of tirzepatide, which instead is shifted towards higher affinity to the GIPR.[26]

GIPR [4] = details: in vitro; cited from earlier work
From the text: as §1

GLP-1R [5] = details: in vitro; cited from earlier work
From the text: as §1

[6] = cited from earlier work; remark: listed apart in the source
From the text: Tirzepatide is the first dual GLP-1R/GIPR agonist approved for the treatment of type 2 diabetes (T2D).[11]

[7] = pre-administration of unlabelled peptide as positive control, 6 μg/kg / 10 μg/kg (Table 4), n = 1
[8] = even at highest doses (450 μg/kg) s.c.

glucagon-like peptide-1 (HAEGTFTSDVSSYLEGQAAKEFIAWLVKGR; ends and bridges not checked; UniProt P01275 98-127, looked up) [GLP-1, endogenous incretin hormone]
food intake (mice): reduced food intake

glucose-dependent insulinotropic polypeptide [GIP (1–42)]
decrease of pancreatic [^68Ga]S02-GIP-T4 signal (GIPR [1]): 24% | food intake (mice): reduced food intake

DO3A-Exendin-4: unlabelled peptide used for blocking, positive control; made by in-house SPPS by Sanofi
reduction of [^68Ga]Ga-DO3A-Exendin-4 binding (human GLP-1R; pre-incubated with 1 μM (10 min, PBS + 1% BSA)): 80 ± 16% | decrease of [^68Ga]Ga-DO3A-Exendin-4 uptake in pancreas (GLP-1R [2]; [7]): 73% | decrease of [^68Ga]Ga-DO3A-Exendin-4 uptake in pituitary gland (GLP-1R [2]; [7]): 53% | reduction of [^68Ga]Ga-DO3A-Exendin-4 uptake in hypothalamic region (GLP-1R [2]; [7]): 55% | reduction of [^68Ga]Ga-DO3A-Exendin-4 uptake in mammillary body (GLP-1R [2]; [7]): 60%

tirzepatide: first dual GLP-1R/GIPR agonist approved for the treatment of type 2 diabetes
competition with [^68Ga]Ga-DO3A-Exendin-4 at GLP-1R (human GLP-1R; 10 μM): competed for an overlapping binding site of GLP-1R | reduction of [^68Ga]Ga-DO3A-Exendin-4 binding (human GLP-1R; pre-incubated with 10 μM): 84.9 ± 7% | occupancy in appetite-regulating brain regions (GLP-1R [2]; 50–450 μg/kg s.c., experimental design not aligned with Tmax): did not show detectable occupancy | GLP-1R occupancy in pancreas, did not exceed (GLP-1R [2]; [8]): ≤ 60% | GLP-1R occupancy in pituitary, did not exceed (GLP-1R [2]; [8]): ≤ 60% | Tmax (in words) ([3]; extended plasma half-life, no reference given): on the order of days | Tmax ([3]; subcutaneous): 8 to 72 h | affinity to GIPR vs endogenous GIP(1–42) (GIPR [4]): same affinity | affinity to GLP-1R vs native GLP-1 (GLP-1R [5]): fivefold lower affinity | glucose-lowering effect vs mono GLP-1R agonism [6]: greater glucose-lowering effect | weight reduction vs mono GLP-1R agonism [6]: greater weight reduction
